Like-named read-outs stand apart in the source and are kept apart here.
Key:
[1] = test system: Rhodamine Conjugated affinity Purified anti-Biotin [goat]
Protocol: (§1) Each concentration is spotted 6 times per slide.
(§2) The slides are incubated for 2 hours at 37° C. under a moist atmosphere. A series of 4 successive washings is carried out with PBS solution to which 0.05% Tween 20 had been added. The slides are then rinsed with a deionised water wash-bottle then with 95° ethanol for 1 minute, then dried for 15 minutes in the ambient atmosphere.
(§3) The results expressed in the following table correspond to the mean fluorescence and to the standard deviation of the 6 spots of each concentration obtained after incubation of the rhodamine-conjugated streptavidin and the rhodamine- conjugated anti-biotin antibody respectively.

[2] = target: Streptavidin Tetramethyl Rhodamine conjugate (Streptomyces avidinii, UniProt P22629)
Protocol: as §1, §2, §3

[3] = target: rhodamine-conjugated streptavidin (Streptomyces avidinii, UniProt P22629); conditions: streptavidin 10^−3 mg/ml
Protocol: as §1
The slides are then incubated in the presence of 150 μl of a 10^−3 mg/ml solution of rhodamine-conjugated streptavidin (solution of streptavidin Tetramethyl Rhodamine conjugate (Molecular Probes, Oregon, USA)) diluted in an 0.01 M PBS buffer, pH 7.2 in 15 the presence of different concentrations of biotin (10^−3 M, 10^−4 M, 10^−5 M, 10^−7 M and 0 M under a glass cover slip (24×60 mm). The slides are incubated for 2 hours at 37° C. under a moist atmosphere. A series of 4 successive washings is carried out with PBS solution to which 0.05% Tween 20 had been added. The slides are then rinsed, dried and analysed as stated above.

[4] = test system: antibodies of positive and negative sera (HCV); test: Ketone-functionalised (transaminated) peptide on semicarbazide slides tested with sera; assay type: binding, human; conditions: 16 spots, peptide 10^−4 M
Protocol: The slides are then incubated in the presence of 100 μl of serum from patients diluted to 1/50th in the dilution buffer (PBS+2.5% of powdered semi-skimmed milk+0.5% of Tween 20) under a glass cover slip (24×60 mm). […] 4 successive washes are then effected for 3 minutes in PBS solution with 0.05% added Tween 20.
The reaction of the antibodies of patients with the polypeptides attached to the slide is detected by the binding onto these of fluorescent anti-human IgG antibodies. 100 μl of solution of anti-human IgG-A-M antibodies labelled with rhodamine (TRITC) (Jackson ImmunoResearch Laboratories, Baltimore, US) diluted to 1/100th in the dilution buffer (PBS+2.5% of powdered semi-skimmed milk+0.5% of Tween 20) are then deposited onto each slide. Each slide is then covered with a cover slip (24×60 mm) and left to incubate for 1 hours at 37° C. under a moist atmosphere. A series of 4 successive washes in PBS solution with 0.05% of added Tween 20 is carried out.
The fluorescence emitted is then detected using a slide scanner (L35/PMT 50, Affymetrix 418 Chip Scanner, MWG).
The 2 peptides HCVpc21-Met (non-transaminated) and pc21-TA (transaminated) and also the peptide HCVpc21-2 (described in Example 3) were attached to semicarbazide slides at the rate of 16 spots of each peptide per slide.
Each peptide was deposited at the concentration of 10^−4 M.
The slides were incubated in the presence of 4 positive sera and 2 negative sera.

Sequence of rhodamine-conjugated streptavidin (P22629 37-163 limits assumed): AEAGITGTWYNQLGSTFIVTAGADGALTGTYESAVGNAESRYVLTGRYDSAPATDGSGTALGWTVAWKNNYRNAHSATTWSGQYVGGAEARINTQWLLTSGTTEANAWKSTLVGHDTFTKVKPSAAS
Sequence of Streptavidin Tetramethyl Rhodamine conjugate (P22629 37-163 limits assumed): as above

Substance: H-Lys(biotin-G2)AYLAG-NH(CH2)3O(CH2)2O(CH2)2O(CH2)3NHCOCHO [pep-Biotine]
- mean fluorescence (6 spots) ([1]; pep-Biotine 10^−3 mg/ml, anti-biotin antibody 10^−1 mg/ml): 15350
- mean fluorescence (6 spots) ([1]; pep-Biotine 10^−3 mg/ml, anti-biotin antibody 10^−2 mg/ml): 13113
- mean fluorescence (6 spots) ([1]; pep-Biotine 10^−3 mg/ml, anti-biotin antibody 10^−3 mg/ml): 6828
- mean fluorescence (6 spots) ([1]; pep-Biotine 10^−3 mg/ml, anti-biotin antibody 10^−4 mg/ml): 2271
- mean fluorescence (6 spots) ([1]; pep-Biotine 10^−4 mg/ml, anti-biotin antibody 10^−1 mg/ml): 14721
- mean fluorescence (6 spots) ([1]; pep-Biotine 10^−4 mg/ml, anti-biotin antibody 10^−2 mg/ml): 9121
- mean fluorescence (6 spots) ([1]; pep-Biotine 10^−4 mg/ml, anti-biotin antibody 10^−3 mg/ml): 4981
- mean fluorescence (6 spots) ([1]; pep-Biotine 10^−4 mg/ml, anti-biotin antibody 10^−4 mg/ml): 1535
- mean fluorescence (6 spots) ([1]; pep-Biotine 10^−5 mg/ml, anti-biotin antibody 10^−1 mg/ml): 10932
- mean fluorescence (6 spots) ([1]; pep-Biotine 10^−5 mg/ml, anti-biotin antibody 10^−2 mg/ml): 6849
- mean fluorescence (6 spots) ([1]; pep-Biotine 10^−5 mg/ml, anti-biotin antibody 10^−3 mg/ml): 3377
- mean fluorescence (6 spots) ([1]; pep-Biotine 10^−5 mg/ml, anti-biotin antibody 10^−4 mg/ml): 1249
- mean fluorescence (6 spots) ([1]; pep-Biotine 10^−6 mg/ml, anti-biotin antibody 10^−1 mg/ml): 6606
- mean fluorescence (6 spots) ([1]; pep-Biotine 10^−6 mg/ml, anti-biotin antibody 10^−2 mg/ml): 2947
- mean fluorescence (6 spots) ([1]; pep-Biotine 10^−6 mg/ml, anti-biotin antibody 10^−3 mg/ml): 791
- mean fluorescence (6 spots) ([1]; pep-Biotine 10^−6 mg/ml, anti-biotin antibody 10^−4 mg/ml): 385
- mean fluorescence (6 spots) ([2]; pep-Biotine 10^−3 mg/ml, streptavidin 10^−1 mg/ml): 34660
- mean fluorescence (6 spots) ([2]; pep-Biotine 10^−3 mg/ml, streptavidin 10^−3 mg/ml): 29836
- mean fluorescence (6 spots) ([2]; pep-Biotine 10^−3 mg/ml, streptavidin 10^−4 mg/ml): 13816
- mean fluorescence (6 spots) ([2]; pep-Biotine 10^−4 mg/ml, streptavidin 10^−1 mg/ml): 31781
- mean fluorescence (6 spots) ([2]; pep-Biotine 10^−4 mg/ml, streptavidin 10^−3 mg/ml): 24666
- mean fluorescence (6 spots) ([2]; pep-Biotine 10^−4 mg/ml, streptavidin 10^−4 mg/ml): 7931
- mean fluorescence (6 spots) ([2]; pep-Biotine 10^−5 mg/ml, streptavidin 10^−1 mg/ml): 26524
- mean fluorescence (6 spots) ([2]; pep-Biotine 10^−5 mg/ml, streptavidin 10^−3 mg/ml): 20902
- mean fluorescence (6 spots) ([2]; pep-Biotine 10^−5 mg/ml, streptavidin 10^−4 mg/ml): 7673
- mean fluorescence (6 spots) ([2]; pep-Biotine 10^−6 mg/ml, streptavidin 10^−1 mg/ml): 18500
- mean fluorescence (6 spots) ([2]; pep-Biotine 10^−6 mg/ml, streptavidin 10^−3 mg/ml): 10737
- mean fluorescence (6 spots) ([2]; pep-Biotine 10^−6 mg/ml, streptavidin 10^−4 mg/ml): 2124
- mean fluorescence (6 spots) ([3]; pep-Biotine 10^−3 mg/ml, biotin in competition 0 M): 29836
- mean fluorescence (6 spots) ([3]; pep-Biotine 10^−3 mg/ml, biotin in competition 10^−3 M): 376
- mean fluorescence (6 spots) ([3]; pep-Biotine 10^−3 mg/ml, biotin in competition 10^−4 M): 2237
- mean fluorescence (6 spots) ([3]; pep-Biotine 10^−3 mg/ml, biotin in competition 10^−6 M): 16683
- mean fluorescence (6 spots) ([3]; pep-Biotine 10^−3 mg/ml, biotin in competition 10^−7 M): 17132
- mean fluorescence (6 spots) ([3]; pep-Biotine 10^−4 mg/ml, biotin in competition 0 M): 24666
- mean fluorescence (6 spots) ([3]; pep-Biotine 10^−4 mg/ml, biotin in competition 10^−3 M): 207
- mean fluorescence (6 spots) ([3]; pep-Biotine 10^−4 mg/ml, biotin in competition 10^−4 M): 961
- mean fluorescence (6 spots) ([3]; pep-Biotine 10^−4 mg/ml, biotin in competition 10^−6 M): 9414
- mean fluorescence (6 spots) ([3]; pep-Biotine 10^−4 mg/ml, biotin in competition 10^−7 M): 12178
- mean fluorescence (6 spots) ([3]; pep-Biotine 10^−5 mg/ml, biotin in competition 0 M): 20902
- mean fluorescence (6 spots) ([3]; pep-Biotine 10^−5 mg/ml, biotin in competition 10^−3 M): 107
- mean fluorescence (6 spots) ([3]; pep-Biotine 10^−5 mg/ml, biotin in competition 10^−4 M): 322
- mean fluorescence (6 spots) ([3]; pep-Biotine 10^−5 mg/ml, biotin in competition 10^−6 M): 3588
- mean fluorescence (6 spots) ([3]; pep-Biotine 10^−5 mg/ml, biotin in competition 10^−7 M): 6129
- mean fluorescence (6 spots) ([3]; pep-Biotine 10^−6 mg/ml, biotin in competition 0 M): 10737
- mean fluorescence (6 spots) ([3]; pep-Biotine 10^−6 mg/ml, biotin in competition 10^−3 M): 78
- mean fluorescence (6 spots) ([3]; pep-Biotine 10^−6 mg/ml, biotin in competition 10^−4 M): 189
- mean fluorescence (6 spots) ([3]; pep-Biotine 10^−6 mg/ml, biotin in competition 10^−6 M): 2350
- mean fluorescence (6 spots) ([3]; pep-Biotine 10^−6 mg/ml, biotin in competition 10^−7 M): 2611

Substance: H-MTNRRPQDVKFPGGGQIVGGVYLLPRRGPRLG-NH2 [pc21-Met, non-transaminated control peptide]
- Mean Fluorescence ([4]; Serum 41, ELISA o.d. 1.4): 960
- Mean Fluorescence ([4]; Serum 43, ELISA o.d. 1.7): 2810
- Mean Fluorescence ([4]; Serum 45, ELISA o.d. 0.7): 356
- Mean Fluorescence ([4]; Serum 48, negative): 59
- Mean Fluorescence ([4]; Serum 53, ELISA o.d. 2.7): 7741
- Mean Fluorescence ([4]; Serum 55, negative): 55

From US20040235049A1, “Device for presentation of polypeptides able to be used as a chip for miniaturised detection of molecules” (priority 2001, published 2004)
